This experiment concerns eyelashes of patients with open-angle glaucoma or ocular hypertension. Briefly: European Phase III clinical trial: eyelash findings from photographs compared with base line. Type of experiment: in vivo, human. To be noted: for Color of eyelashes was changed (number of patients with finding) / Eyelashes were grown (number of patients with finding) / Eyelashes were made thicker (number of patients with finding): eye drop (0.0015% tafluprost or 0.005% latanoprost) once a day, one drop, total 264 patients per group. The procedure: A European Phase III clinical trial for tafluprost, one of the 15,15-difluoroprostaglandin F2α derivatives, with patients with open-angle glaucoma or ocular hypertension was performed by the following test method, and tafluprost was evaluated for findings associated with the eyelashes and an peripheral area thereof, that is, the evaluation was performed as to whether eyelashes were grown, eyelashes were made thicker, and the color of eyelashes was changed by the following evaluation method.
Patients with open-angle glaucoma or ocular hypertension were randomly allocated to two groups (a 0.0015% tafluprost eye drop group and a 0.005% latanoprost eye drop group) and received the eye drop once a day at a dose of one drop for 24 months in a double-blind manner after a washout period for 5 days to 4 weeks or more according to need prior to the glaucoma medication.
The eyelashes and eyelids were photographed at 0 (base line), 3, 6, 12, 18, and 24 months, and the photographs were compared with the base line, and the presence or absence of findings (eyelashes were grown, eyelashes were made thicker, and the color of eyelashes was changed) was confirmed.

As to `CC(C)OC(=O)CCC/C=C\C[C@@H]1[C@@H](CC[C@@H](O)CCc2ccccc2)[C@H](O)C[C@@H]1O` [Latanoprost, latanoprost, reference compound], where the note is “24 months”, the “Color of eyelashes was changed (number of patients with finding)” value turned out to be 10 patients, the “Eyelashes were grown (number of patients with finding)” value was 11 patients and the “Eyelashes were made thicker (number of patients with finding)” value amounted to 4 patients.
In the case of `CC(C)OC(=O)CCC/C=C\C[C@@H]1[C@@H](/C=C/C(F)(F)COc2ccccc2)[C@H](O)C[C@@H]1O` [Tafluprost, tafluprost], the “Effect of promoting the growth of hair (eyelashes), in words” value (0.0015% eye drop once a day for 24 months, conclusion from Table 1) is “has actions of growing eyelashes, making eyelashes thicker, and changing the color thereof”. Further, the “Eyelash actions compared with those of latanoprost, in words” value (0.0015% tafluprost eye drop vs 0.005% latanoprost eye drop, 24 months) is recorded as “significant effects as compared with those of latanoprost”. Further, where the note is “24 months”, the “Color of eyelashes was changed (number of patients with finding)” value came to 13 patients, the “Eyelashes were grown (number of patients with finding)” value came to 17 patients and the “Eyelashes were made thicker (number of patients with finding)” value was 5 patients.

Values taken from US20110152373A1, “HAIR GROWTH PROMOTING AGENT CONTAINING 15,15-DIFLUOROPROSTAGLANDIN F2ALPHA DERIVATIVE AS ACTIVE INGREDIENT” (SANTAN PHARMACEUTICAL CO., LTD., priority 2008, published 2011).
